Assays:
[1] = plasma cholesterol, HDL-cholesterol and neutral lipid levels in rats fed a high-cholesterol diet; assay type: in vivo, Sprague-Dawley rats; conditions: six weeks; for HDL-C/Total-C ratio higher than in the control group / neutral lipid content lower than in the Control group / total plasma cholesterol level lower than in the Control group: 0.1% in diet; for HDL-C / Total-C / HDL-C (HDL-cholesterol) / TG (triglyceride) / Total-C (total cholesterol): 1% cholesterol plus 0.1% compound in diet; for HDL-C / Total-C: Control 28; for HDL-C (HDL-cholesterol): Control 38 ± 2; for TG (triglyceride): Control 98 ± 5; for Total-C (total cholesterol): Control 135 ± 6
Description: Effect of Tannin, Gallic acid or Ellagic acid on Plasma Cholesterol, HDL-Cholesterol and Neutral Lipid Levels
(Step 1) Administration of tannin or gallic acid to rats
30 three-week-old white Sprague-Dawley rats (Taihan laboratory animal center, Korea), each weighing about 90 to 110 g, were evenly divided into three dietary groups by a randomized block design. The rats of the three groups were fed with three different high-cholesterol diets, i.e., AIN-76 laboratory animal diet (ICN Biochemicals, Cleveland, Ohio, U.S.A.) containing 1% cholesterol (Control group), 1% cholesterol plus 0.1% tannin group (tannin group) and 1% cholesterol plus 0.1% gallic acid, respectively.
The rats were allowed to feed freely on the specified diet together with water for six weeks, the ingestion amount was recorded daily and the rats were weighed every 7 days, and then the record was analyzed.
(Step 2) Determination of total cholesterol, HDL-cholesterol and neutral lipid content in blood
The effects of administering tannin or gallic acid to rats on the plasma cholesterol and neutral lipid contents were determined as follows.
The rats of the three dietary groups obtained in Step 1 were sacrificed and blood samples were taken therefrom. The blood was allowed to stand for 2 hours and centrifuged at 3,000 rpm for 15 minutes and the supernatant was separated and stored in a deep freezer before use. The chemical analysis of blood was carried out by employing a blood chemical analyzer (CIBA Corning 550 Express, USA) to determine the changes in total cholesterol, HDL-cholesterol and triglyceride levels.

[2] = chemical analysis of blood of rabbits fed a high-cholesterol diet; assay type: in vivo, New Zealand White rabbits; conditions: for TG (triglyceride): Control 56 ± 38; for TC (total cholesterol): Control 1143 ± 260
Protocol: Effect of Tannin, Gallic acid or Ellagic acid in an Animal
(Step 1) Administration of tannin, gallic acid or ellagic acid to rabbits
(§1) 30 three-month-old male New Zealand White rabbits (Yeonam Horticulture and Animal Husbandry College, Korea), each weighing about 2.5 to 2.6 kg, were raised under a condition of temperature 20+2° C., relative humidity 55±5%, and photoperiod 12L/12D. The rabbits were divided into 5 groups and 5 groups of rabbits were fed with 5 different diets, i.e., RC4 diet (Oriental Yeast Co., Japan) containing 1% cholesterol (Control group, 1); 1% cholesterol plus 1 mg/kg Lovastatin® (Merck, U.S.A.) (Lovastatin® group, 2); 1% cholesterol plus 0.1% tannin (3); 1% cholesterol plus 0.1% gallic acid (4); and 1% cholesterol plus 0.1% ellagic acid (5), respectively. RC4 diet comprises 7.6% moisture, 22.8% crude protein, 2.8% crude fat, 8.8% crude ash, 14.4% crude cellulose and 43.6% soluble nitrogen-free substances. Tannin, gallic acid and ellagic acid were purchased from Sigma Chemical Co. (St. Louis, Mo.).
(§2) The rabbits were fed for 6 weeks while being allowed free access to the diets and water.
(Step 2) Chemical Analysis of Blood
After six weeks, the rabbits were anesthetized with an intramuscular injection of ketamine (50 mg/kg) in the femoral region and sacrificed. A blood sample was taken from the heart of each rabbit, allowed to stand for 2 hours and centrifuged at 3,000 rpm for 15 minutes and the supernatant serum was separated and stored in a freezer before use.
The chemical analysis of blood was carried out by employing a blood chemical analyzer (CIBA Corning 550 Express, USA) to determine the changes in GOT, GPT, γGTP, total cholesterol, HDL-cholesterol and triglyceride levels.

[3] = system: main artery (arterial endothelium); experiment: analysis for fatty streak in the main artery of rabbits; assay type: in vivo, New Zealand White rabbits; conditions: for Fatty streak (proportion of stained region to total arterial area): 1% cholesterol diet plus 0.1% compound (Lovastatin 1 mg/kg), Control 35 ± 14; for Fatty streak (proportion of stained region to total arterial area) / plaque formation in the endothelium of the main artery: 6 weeks; for deposition of macrophages on the arterial endothelium: blood cholesterol level high
Protocol: as §1, §2
(Step 3) Analysis for fatty streak in the main artery
The chest of each of the rabbits sacrificed in Step 2 was incised. The downward portion of the main artery from the site 1 cm above the aortic valve was cut out in a length of about 5 cm and the fat surrounding the main artery was removed. The main artery was incised in the middle along the longitudinal axis and pinned to a dish. The moist artery was photographed and, then, the staining of fatty streaks was carried out in accordance with the method of Esper, E., et al. (J. Lab. Clin. Med., 121, 103-110 (1993)) as follows.
A part of the incised main artery was washed three times with anhydrous propylene glycol for 2 min. and stained for 30 min. with a saturated solution of Oil Red O (ORO, Sigma Co.) dissolved in propylene glycol. Thereafter, the artery was washed twice with 85% propylene glycol for 3 min. to remove remaining staining solution and, then washed with physiological saline. The artery was photographed and the photograph was traced. The area of stained region (fatty streak region) was determined with an image analyzer (LEICA, Q-600, Germany) and its proportion (%) to the total arterial area was calculated.
FIGS. 1A, 1B and 1C show the arteries of the rabbits administered with 1% cholesterol (Control group); 1% cholesterol plus 1 mg/kg Lovastatin® (Lovastatin® group); 1% cholesterol plus 0.1% ellagic acid, respectively.

[4] = system: liver cells around the central vein; experiment: fatty liver: proportion of abnormal fat-containing cells in the liver of rabbits; assay type: in vivo, New Zealand White rabbits; conditions: 6 weeks; for A: Proportion of abnormal fat-containing liver cells (grade): 1% cholesterol diet plus 0.1% compound (Lovastatin 1 mg/kg), mean of grades 1+ to 4+, Control 3.2 ± 0.3; for inhibition of the formation of fatty liver: 1% cholesterol diet
Protocol: as §1, §2
(Step 5) Prevention of Hepatic Diseases

[5] = rabbits, 1% cholesterol diet plus 0.1% compound (Lovastatin 1 mg/kg), 6 weeks

Compound | HDL-C/Total-C ratio higher than in the control group [1] | neutral lipid content lower than in the Control group [1] | total plasma cholesterol level lower than in the Control group [1] | HDL-C / Total-C [1] | HDL-C (HDL-cholesterol) [1] | TG (triglyceride) [1] | Total-C (total cholesterol) [1] | effect on the liver function (adverse) ([2]; general statement) | γGTP ([2]; rabbits, 1% cholesterol diet plus 0.1% compound (Lovastatin 1 mg/kg), 6 weeks, Control 4.2 ± 0.9) | TG (triglyceride) [2, 5] | GPT ([2]; rabbits, 1% cholesterol diet plus 0.1% compound (Lovastatin 1 mg/kg), 6 weeks, Control 65 ± 9) | GOT ([2]; rabbits, 1% cholesterol diet plus 0.1% compound (Lovastatin 1 mg/kg), 6 weeks, Control 77 ± 8) | TC (total cholesterol) [2, 5] | lipid metabolism and liver function ([2]; rabbits, 6 weeks) | Fatty streak (proportion of stained region to total arterial area) [3] | plaque formation in the endothelium of the main artery [3] | deposition of macrophages on the arterial endothelium [3] | A: Proportion of abnormal fat-containing liver cells (grade) [4] | inhibition of the formation of fatty liver [4] | effect on the liver function (adverse) ([2]; rabbit, in vivo)
O=C(O)c1cc(O)c(O)c(O)c1 [Gallic acid, gallic acid] | 21% | 22% | 31% | 34% | 32 ± 3 mg/dL | 77 ± 4 mg/dL | 93 ± 5 mg/dL | do not adversely affect on the liver function | 7.0 ± 2 IU/l | 27 ± 11 mg/dL | 20 ± 10 IU/l | 60 ± 9 IU/l | 1150 ± 100 mg/dL | can improve | 10 ± 2% | inhibit | strongly inhibit | 2.7 ± 0.4 | can significantly inhibit the formation of fatty liver | –
tannin | 54% | 21% | 35% | 43% | 37 ± 2 mg/dL | 76 ± 3 mg/dL | 88 ± 4 mg/dL | – | – | 25 ± 10 mg/dL | – | – | 1120 ± 211 mg/dL | can improve | 13 ± 2% | inhibit | strongly inhibit | 2.7 ± 0.4 | significantly inhibit the formation of fatty liver | do not adversely affect on the liver function
